Data set [1] has as its system Liver microsomes. In words: Clearance in human liver microsomes assessed per mg of protein at 1 uM after 30 mins in absence of NADPH. Type of data set: ADME, Microsome. The note with it: 0.5 h.
The subject of data set [2] is Liver. Description: Clearance in mouse liver microsomes assessed per mg of protein at 1 uM after 30 mins in absence of NADPH. Format: ADME, Microsome. The conditions noted are these: 0.5 h.
The test system of data set [3] is Liver microsomes. Description: Clearance in human liver microsomes assessed per mg of protein at 1 uM after 30 mins in presence of NADPH. Type of data set: ADME, Microsome. The conditions noted are these: 0.5 h.
Data set [4] is described as follows: Half life in human serum at […]. Format: ADME, cell-free.
For data set [5], the system named is Liver. Description: Clearance in mouse liver microsomes assessed per mg of protein at 1 uM after 30 mins in presence of NADPH. Type of data set: ADME, Microsome. The conditions noted are these: 0.5 h.
A short description of data set [6]: Half life in mouse serum at […]. Format: ADME, cell-free.
Data set [7] concerns the target Lactoylglutathione lyase (Homo sapiens, UniProt Q04760). In words: Inhibition of human recombinant GLO1 expressed in Escherichia coli BL21 assessed as decrease in reduced glutathione level after 1 hr by Ellman's method.

Structures are written as SMILES.

Chain of Lactoylglutathione lyase (Q04760 whole entry): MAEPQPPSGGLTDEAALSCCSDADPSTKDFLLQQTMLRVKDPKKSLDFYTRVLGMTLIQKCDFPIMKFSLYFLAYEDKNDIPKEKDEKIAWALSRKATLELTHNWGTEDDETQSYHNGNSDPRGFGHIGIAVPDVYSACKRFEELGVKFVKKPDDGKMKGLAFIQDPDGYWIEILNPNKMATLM

For `O=c1cc(-c2ccccc2)cc(-c2ccccc2)n1O`, the CLint in data set [1] amounted to 6.6 µL/min/mg; in data set [2] it was 6.8 µL/min/mg; in data set [3], 16 µL/min/mg; in data set [5] it was 28 µL/min/mg. Also, the figures for the half-life in data set [4] and in data set [6] were 48.3 h and 7.33 h, respectively. In addition, the half-inhibitory concentration (IC50) in data set [7] is 1190 nM.
`COCCn1ccc2cc(-c3cc(-c4ccccc4)cc(=O)n3O)ccc21`: the IC50 in data set [7] is 260 nM.
The same measure, in the same setting: as for `COCCCn1ccc2cc(-c3cc(-c4ccccc4)cc(=O)n3O)ccc21`, the figure is 300 nM; as for `CCCCn1ccc2cc(-c3cc(-c4ccccc4)cc(=O)n3O)cnc21`, 300 nM.
Same read-out and setting: as for `CCCCCn1ccc2cc(-c3cc(-c4ccccc4)cc(=O)n3O)cnc21`, the figure is 510 nM.
Same read-out and setting: as for `O=c1cc(-c2ccsc2)cc(-c2ccccc2)n1O`, the figure is 1520 nM.
Turning to `O=c1cc(-c2cccnc2)cc(-c2ccccc2)n1O`, the IC50 in data set [7] turned out to be 8280 nM.
Same read-out and setting: for `O=c1cc(-c2ccc(C(F)(F)F)cc2)cc(-c2ccccc2)n1O` the value was 8130 nM; for `O=c1cc(-c2ccc(-c3ccccc3)cc2)cc(-c2ccccc2)n1O`, 8400 nM; for `CCC#Cc1cc(-c2ccccc2)n(O)c(=O)c1`, > 10000 nM.
Same read-out and setting: for `CCCCc1cc(-c2ccccc2)n(O)c(=O)c1` the value was > 10000 nM; for `O=c1cc(-c2ccccc2)cc(-c2cnc3[nH]ccc3c2)n1O`, 280 nM.
On the same count and under the same terms, for `O=c1cc(-c2ccccc2)cc(-c2ccc3[nH]ccc3c2)n1O` the value was 250 nM.
For `NC(=O)c1cccc(Cn2ccc3cc(-c4cc(-c5ccccc5)cc(=O)n4O)cnc32)c1`, the IC50 in data set [7] is 40 nM.
Same read-out and setting: as for `NC(=O)c1cccc(Cn2ccc3cc(-c4cc(-c5ccccc5)cc(=O)n4O)ccc32)c1`, the figure is 480 nM; as for `COCCn1ccc2cc(-c3cc(-c4ccccc4)cc(=O)n3O)cnc21`, 14 nM.

For the origin of these results see ChEMBL document CHEMBL2203256, “Design and evaluation of azaindole-substituted N-hydroxypyridones as glyoxalase I inhibitors” (Bioorg Med Chem Lett, 2012).
